Literature values as cited in patent publication US20150031737A1, “STABILIZED CONTROLLED-RELEASE PHARMACEUTICAL COMPOSITION COMPRISING GLICLAZIDE” (RANBAXY LABORATORIES LIMITED, priority 2012, published 2015).

pKa: about 5.8
Compound: Cc1ccc(S(=O)(=O)NC(=O)NN2CC3CCCC3C2)cc1 (stereo not shown) [Gliclazide]
